The term CC50 denotes the concentration at which the toxic effect on the cells reaches its halfway point. The EC50 is the midpoint of the concentration-response curve.

We go through 25 compounds from article PMC8318836 (Bioorganic Chemistry, 2021).

One series has as its system Huh 7 cells. Conditions: concentration of 50% cellular toxicity in Huh 7 cells.
In series [1] the test system is SARS-CoV-2 pseudovirus. The class given is cell-based. Conditions: for EC50: read-out: EC50-SARS-CoV-2.
The test system of a further series is VSV G pseudovirus. The class given is cell-based, vesicular stomatitis virus (VSV). Conditions: read-out: EC50-VSV.
Series [2] relates to SARS-CoV-2 pseudovirus. Description: Single-cycle time-of-addition experiment on SARS-CoV-2 pseudovirus. The class given is cell-based. Particulars: 25 µM, Huh 7 cells.

The compound `O=C(CNc1ccc(Cl)cc1)N1CCCC2=CC3CC(CN4CCCCC34)C21` (stereo not shown) [14d, 12N-N′-p-Chlorophenylaminoacetyl aloperine] registered a CC50 in the series on Huh 7 cells above 267 µM. Moreover, the EC50 in the series on SARS-CoV-2 pseudovirus [1] was found to be 61.3 µM; in the series with VSV G pseudovirus, 163 µM.
On to `O=C(CNc1ccccc1)N1CCCC2=CC3CC(CN4CCCCC34)C21` (stereo not shown) [14a, 12N-N′-Phenylaminoacetyl aloperine], for which, in the series on Huh 7 cells, the CC50 is above 267 µM. Besides, the EC50 in the series on SARS-CoV-2 pseudovirus [1] and with VSV G pseudovirus was above 267 µM each time.
In turn, `O=C(CNc1cccc(C(F)(F)F)c1)N1CCCC2=CC3CC(CN4CCCCC34)C21` (stereo not shown) [14h, 12N-N′-m-Trifluoromethylphenylaminoacetyl aloperine] yielded a CC50 in the series with Huh 7 cells above 267 µM. The figures for the EC50 in the series on SARS-CoV-2 pseudovirus [1] and in the series with VSV G pseudovirus were 69.2 µM and 134 µM, respectively.
As to `O=C(Nc1ccc(F)cc1F)N1CCCC2=CC3CC(CN4CCCCC34)C21` (stereo not shown) [15a, 12N-N′-(2,4-Difluorophenyl)carbamoyl aloperine], the cytotoxic concentration (CC50) in the series with Huh 7 cells is above 267 µM. For the same compound, the EC50 came out at 195 µM with SARS-CoV-2 pseudovirus [1] and 139 µM with VSV G pseudovirus.
The compound `O=C(CN1CCCC2=CC3CC(C4CCCCN4C3)C21)Nc1ccc2ccccc2c1` (stereo not shown) [11p, 12N-N′-(2-Naphthyl)carbamoylmethyl aloperine] came in with a CC50 in the series on Huh 7 cells of 96.7 µM. Also, the EC50 in the series on SARS-CoV-2 pseudovirus [1] came to 37.1 µM; in the series with VSV G pseudovirus, 43.5 µM.
In the series with Huh 7 cells, `Cc1cc(Cl)ccc1NC(=O)CN1CCCC2=CC3CC(C4CCCCN4C3)C21` (stereo not shown) [11j, 12N-N′-(4-Chloro-2-methylphenyl)carbamoylmethyl aloperine] showed a CC50 above 267 µM. Further, the EC50 came to 107 µM with SARS-CoV-2 pseudovirus [1] and 75.1 µM with VSV G pseudovirus.
For `O=C(CN1CCCC2=CC3CC(C4CCCCN4C3)C21)Nc1ccc(Cl)cc1Cl` (stereo not shown) [11d, 12N-N′-(2,4-Dichlorophenyl)carbamoylmethyl aloperine], in that order: 167 µM, 54.8 µM and 70.5 µM.
The like results for `O=C(CNc1ccc2ccccc2c1)N1CCCC2=CC3CC(CN4CCCCC34)C21` (stereo not shown) [14q, 12N-N′-(2-Naphthylamino)acetyl aloperine] were, in that order, 224 µM, 87.2 µM and 108 µM.
With `O=C(CNc1ccc(F)cc1)N1CCCC2=CC3CC(CN4CCCCC34)C21` (stereo not shown) [14b, 12N-N′-p-Fluorophenylaminoacetyl aloperine], the CC50 with Huh 7 cells is above 267 µM. Further, the 50% effective concentration (EC50) with SARS-CoV-2 pseudovirus [1] is 177 µM; with VSV G pseudovirus it was above 267 µM.
`COc1cc(NCC(=O)N2CCCC3=CC4CC(CN5CCCCC45)C32)cc(OC)c1` (stereo not shown) [14n, 12N-N′-(3,5-Dimethoxyphenylamino)acetyl aloperine] returned a CC50 with Huh 7 cells above 267 µM. The concentration giving a half-maximal response (EC50) in the series on SARS-CoV-2 pseudovirus [1] and in the series on VSV G pseudovirus was above 267 µM each time.
In the series with Huh 7 cells, `O=C(Nc1cc(C(F)(F)F)cc(C(F)(F)F)c1)N1CCCC2=CC3CC(CN4CCCCC34)C21` (stereo not shown) [15c, 12N-N′-(3,5-Ditrifluoromethylphenyl)carbamoyl aloperine] came in with a CC50 of 53.9 µM. Further, the EC50 with SARS-CoV-2 pseudovirus [1] stood at 11.5 µM; with VSV G pseudovirus it was 14.9 µM.
Compound `O=C(CNc1cccc2ccccc12)N1CCCC2=CC3CC(C4CCCCN4C3)C21` (stereo not shown) [14p, 12 N-N′-(1-Naphthylamino)acetyl aloperine] registered a CC50 with Huh 7 cells of 199 µM. The results for the EC50 in the series on SARS-CoV-2 pseudovirus [1] and in the series with VSV G pseudovirus were 73.6 µM and 125 µM, respectively.
For `O=C(CN1CCCC2=CC3CC(CN4CCCCC34)C21)Nc1cc(C(F)(F)F)cc(C(F)(F)F)c1` (stereo not shown) [11o, 12N-N′-(3,5-Ditrifluoromethylphenyl)carbamoylmethyl aloperine], in the series on Huh 7 cells, half-maximal cytotoxicity (CC50) was put at 71 µM. The EC50 in the series with SARS-CoV-2 pseudovirus [1] was determined as 17 µM; in the series on VSV G pseudovirus, 21.9 µM.
In the series with Huh 7 cells, `O=C(CN1CCCC2=CC3CC(C4CCCCN4C3)C21)Nc1cc(Br)ccc1Cl` (stereo not shown) [11g, 12N-N′-(5-Bromo-2-chlorophenyl)carbamoylmethyl aloperine] registered a cytotoxic concentration (CC50) above 267 µM. In addition, the EC50 with SARS-CoV-2 pseudovirus [1] stood at 90.3 µM; with VSV G pseudovirus, 77.5 µM.
Compound `O=C(CNc1ccc(Cl)cc1Cl)N1CCCC2=CC3CC(CN4CCCCC34)C21` (stereo not shown) [14k, 12N-N′-(2,4-Dichlorophenylamino)acetyl aloperine] gave a CC50 with Huh 7 cells of 65.8 µM. The EC50 was 17.8 µM with SARS-CoV-2 pseudovirus [1] and 36.2 µM in the series on VSV G pseudovirus.
In the series on Huh 7 cells, `O=C(CNc1ccc(Br)cc1)N1CCCC2=CC3CC(CN4CCCCC34)C21` (stereo not shown) [14e, 12N-N′-p-Bromophenylaminoacetyl aloperine] showed a CC50 of 180 µM. In addition, the figures for the 50% effective concentration (EC50) in the series with SARS-CoV-2 pseudovirus [1] and in the series on VSV G pseudovirus were 37.3 µM and 85.4 µM, respectively.
`CCCNC(=O)[C@H]1O[C@@H]1C(=O)N[C@H](C(=O)N1CCC[C@H]1C(=O)O)[C@@H](C)CC` [CA-074, reference compound]: in the series with Huh 7 cells, the CC50 came to 231 µM. Moreover, the EC50 in the series on SARS-CoV-2 pseudovirus [1] is 2.7 µM; with VSV G pseudovirus, 10.5 µM. Moreover, the “inhibition rate, process d” value in the series with SARS-CoV-2 pseudovirus [2] (added 1 h post infection) came out at 93%. Further, the “inhibition rate, process b” value with SARS-CoV-2 pseudovirus [2] (added during pseudovirus infection at 0 °C) was 77%. Moreover, in the series on SARS-CoV-2 pseudovirus [2] (added during pseudovirus infection at 37 °C), the “inhibition rate, process a” value is on record as 87%.
`O=C(CN1CCCC2=CC3CC(CN4CCCCC34)C21)Nc1ccc(I)cc1` (stereo not shown) [11c, 12N-N′-p-Iodophenylcarbamoylmethyl aloperine] returned a CC50 in the series on Huh 7 cells of 124 µM. The EC50 in the series with SARS-CoV-2 pseudovirus [1] stood at 29.5 µM; in the series with VSV G pseudovirus, 47.8 µM.
Regarding `O=C(CNc1ccc(Cl)c(Cl)c1)N1CCCC2=CC3CC(C4CCCCN4C3)C21` (stereo not shown) [14l, 12N-N′-(3,4-Dichlorophenylamino)acetyl aloperine], the CC50 in the series on Huh 7 cells was 63 µM. In addition, the EC50 in the series on SARS-CoV-2 pseudovirus [1] was 15.8 µM; with VSV G pseudovirus, 35.9 µM.
`Cc1ccc(NC(=O)CN2CCCC3=CC4CC(CN5CCCCC45)C32)cc1C` (stereo not shown) [11n, 12N-N′-(3,4-Dimethylphenyl)carbamoylmethyl aloperine] had a CC50 with Huh 7 cells above 267 µM. The results for the EC50 in the series with SARS-CoV-2 pseudovirus [1] and in the series with VSV G pseudovirus were 70.8 µM and 108 µM, respectively.
As for `O=C(CN1CCCC2=CC3CC(CN4CCCCC34)C21)Nc1ccc2ccccc2n1` (stereo not shown) [11q, 12N-N′-(2-Quinolyl)carbamoylmethyl aloperine], the CC50 in the series on Huh 7 cells is above 267 µM. Further, the EC50 in the series with SARS-CoV-2 pseudovirus [1] amounted to 67.4 µM; in the series on VSV G pseudovirus, 120 µM.
On to `O=C(CN1CCCC2=CC3CC(C4CCCCN4C3)C21)Nc1cc(Cl)cc(C(F)(F)F)c1` (stereo not shown) [11k, 12N-N′-(3-Chloro-5-trifluoromethylphenyl)carbamoylmethyl aloperine], for which the CC50 with Huh 7 cells came to 57.1 µM. Moreover, in the series on SARS-CoV-2 pseudovirus [1], the “anti-SARS-CoV-2 activity compared to lead 1” value is on record as “slightly elevated activity” and the EC50 amounted to 10.4 µM. The EC50 with VSV G pseudovirus stood at 17.5 µM.
As for `COc1cccc(NCC(=O)N2CCCC3=CC4CC(C5CCCCN5C4)C32)c1` (stereo not shown) [14i, 12N-N′-m-Methoxyphenylaminoacetyl aloperine], in the series with Huh 7 cells, the CC50 is above 267 µM. In addition, the EC50 in the series with SARS-CoV-2 pseudovirus [1] and in the series on VSV G pseudovirus was above 267 µM throughout.
Consider `O=C(CNc1cc(C(F)(F)F)cc(C(F)(F)F)c1)N1CCCC2=CC3CC(CN4CCCCC34)C21` (stereo not shown) [14o, 12N-N′-(3,5-Ditrifluoromethylphenylamino)acetyl aloperine], for which, in the series on Huh 7 cells, the CC50 was found to be 113 µM. Besides, the concentration giving a half-maximal response (EC50) was found to be 37.6 µM in the series with SARS-CoV-2 pseudovirus [1] and 48.3 µM in the series with VSV G pseudovirus.
Turning to `Cc1cc(C)cc(NCC(=O)N2CCCC3=CC4CC(CN5CCCCC45)C32)c1` (stereo not shown) [14m, 12N-N′-(3,5-Dimethylphenylamino)acetyl aloperine], in the series with Huh 7 cells, the CC50 is above 267 µM. Besides, the 50% effective concentration (EC50) in the series on SARS-CoV-2 pseudovirus [1] and in the series on VSV G pseudovirus was above 267 µM in each case.
